Experimental data published in patent US5084453A, “1-carboxy-1-vinyloxyimino aminothiazole cephalosporin derivatives” (priority 1988, dated 1992).
Like-named read-outs stand apart in the source and are kept apart here.

Experiments:
K. oxytoca GN10650* = assay: in vitro antibacterial activity, agar plate dilution method; type: cell-based; settings: Klebsiella oxytoca, GN10650, 16 h
Procedure, shortened: (§1)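 Overnight Mueller Hinton broth cultures were loop-inoculated onto Mueller Hinton agar containing serial antibiotic concentrations. After 16 h at 37 °C, the MIC (μg/ml) was read.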

Ps. aeruginosa AKR17 = assay: as above; type: cell-based; settings: Pseudomonas aeruginosa
Procedure, shortened: as §1

K. pneumoniae PC1-602 = assay: as above; type: cell-based; settings: Klebsiella pneumoniae
Procedure, shortened: as §1

S. marcescens IAM 1184 = assay: as above; type: cell-based; settings: Serratia marcescens
Procedure, shortened: as §1

S. marcescens No. 16-2* = assay: as above; type: cell-based; settings: Serratia marcescens
Procedure, shortened: as §1

M. morganii GN5407* = assay: as above; type: cell-based; settings: Morganella morganii, GN5407, 16 h
Procedure, shortened: as §1

S. aureus 209P NIHJ-JC1 = assay: as above; type: cell-based; settings: Staphylococcus aureus
Procedure, shortened: as §1

E. cloacae 963 = assay: as above; type: cell-based; settings: Enterobacter cloacae, 963, 16 h
Procedure, shortened: as §1

E. coli CSH(RE45)* = assay: as above; type: cell-based; settings: Escherichia coli; 10^6 CFU/ml; β-Lactamase-producing strain; 37° C., 16 hours; read-out: MIC
Procedure, shortened: as §1

A. calcoaceticus No. 4 = assay: as above; type: cell-based; settings: Acinetobacter calcoaceticus
Procedure, shortened: as §1

E. coli GN5482* = assay: as above; type: cell-based; settings: Escherichia coli, GN5482, 16 h
Procedure, shortened: as §1

E. cloacae Nek 39* = assay: as above; type: cell-based; settings: Enterobacter cloacae
Procedure, shortened: as §1

P. vulgaris No. 33* = assay: as above; type: cell-based; settings: Proteus vulgaris; 10^6 CFU/ml; β-Lactamase-producing strain; 37° C., 16 hours; read-out: MIC
Procedure, shortened: as §1

E. coli CSH2(RK1)* = assay: as above; type: cell-based; settings: Escherichia coli, 16 h
Procedure, shortened: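 Minimum inhibitory concentrations, expressed as μg/ml, come from agar dilution plates of Mueller Hinton medium that carry the antibiotic at various concentrations. A loopful of overnight broth culture is applied to each plate, and the plates are read after 16 hours at 37° C.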

Ps. aeruginosa IFO3445 = assay: as above; type: cell-based; settings: Pseudomonas aeruginosa, IFO3445, 16 h
Procedure, shortened: as §1

Ps. cepacia 23 = assay: as above; type: cell-based; settings: Burkholderia cepacia, 23; 10^6 CFU/ml; Mueller Hinton agar, 37° C., 16 hours; read-out: MIC
Procedure, shortened: as §1

K. pneumoniae No. 42* = assay: as above; type: cell-based; settings: Klebsiella pneumoniae, 16 h
Procedure, shortened: as §1

P. vulgaris HX-19 = assay: as above; type: cell-based; settings: Proteus vulgaris
Procedure, shortened: as §1

Ps. aeruginosa AK 109 = assay: as above; type: cell-based; settings: Pseudomonas aeruginosa
Procedure, shortened: as §1

E. coli NIHJ JC2 = assay: as above; type: cell-based; settings: Escherichia coli, NIHJJC2; 10^6 CFU/ml; Mueller Hinton agar, 37° C., 16 hours; read-out: MIC
Procedure, shortened: as §1

[1] = concentration in blood after subcutaneous administration to mice (paper disk method, Morganella morganii IFO 3843); type: in vivo, mice (ddY, male); settings: mouse, sc, 20 mg/kg subcutaneous
Procedure: As a representative example, the compound of Example 15 was administered to mice by means of subcutaneous administration, and the concentration in the blood was measured. […] The test compound was dissolved in a physiological sodium chloride solution to obtain a formulation having a concentration of 2 mg/ml. […] Now, Ceftazidime was used as a comparative compound. Further, the antibacterial activities of the sample diluted by plasma to have an appropriate concentration were measured by the paper disk method using Morganella morganii IFO 3843 as the test bacterium.

[2] = PC1602, 10^6 CFU/ml, Mueller Hinton agar, 37° C., 16 hours, read-out: MIC
[3] = 10^6 CFU/ml, β-Lactamase-producing strain, 37° C., 16 hours, read-out: MIC
[4] = 10^6 CFU/ml, Mueller Hinton agar, 37° C., 16 hours, read-out: MIC
[5] = AK109, 10^6 CFU/ml, Mueller Hinton agar, 37° C., 16 hours, read-out: MIC
[6] = AKR17, 10^6 CFU/ml, Mueller Hinton agar, 37° C., 16 hours, read-out: MIC
[7] = NO.4, 10^6 CFU/ml, Mueller Hinton agar, 37° C., 16 hours, read-out: MIC
[8] = HX19, 10^6 CFU/ml, Mueller Hinton agar, 37° C., 16 hours, read-out: MIC

C=C(O/N=C(\C(=O)N[C@@H]1C(=O)N2C(C(=O)O)=C(CSc3nc(C(=O)O)c(-c4ccc(O)c(O)c4)s3)CS[C@H]12)c1csc(N)n1)C(=O)O [Example 15, trisodium 78-[2-(2-aminothiazol-4-yl)-2-(1-carboxylato-1-vinyloxyimino)acetamido]-3-[4-carboxylato-5-(3,4-dihydroxyphenyl)thiazol-2-yl]thiomethyl-3-cephem-4-carboxylate (syn-isomer)]
MIC (K. oxytoca GN10650*): 0.1 µg/mL | MIC (Ps. aeruginosa AKR17; AKR17, 16 h): 1.56 µg/mL | MIC (K. pneumoniae PC1-602; [2]): < 0.006 µg/mL | MIC (S. marcescens IAM 1184; IAM1184, 16 h): 0.05 µg/mL | MIC (S. marcescens No. 16-2*; [3]): 0.78 µg/mL | MIC (M. morganii GN5407*): 0.025 µg/mL | MIC (S. aureus 209P NIHJ-JC1; [4]): 25 µg/mL | MIC (E. cloacae 963): 0.05 µg/mL | MIC (E. coli CSH(RE45)*): 0.05 µg/mL | MIC (A. calcoaceticus No. 4; NO.4, 16 h): 0.39 µg/mL | MIC (E. coli GN5482*): 0.39 µg/mL | MIC (E. cloacae Nek 39*; 16 h): 0.05 µg/mL | MIC (P. vulgaris No. 33*): < 0.006 µg/mL | MIC (E. coli CSH2(RK1)*): 0.0125 µg/mL | MIC (Ps. aeruginosa IFO3445): 1.56 µg/mL | MIC (Ps. cepacia 23): < 0.006 µg/mL | MIC (K. pneumoniae No. 42*): 0.1 µg/mL | MIC (P. vulgaris HX-19; HX19, 16 h): 0.0125 µg/mL | MIC (Ps. aeruginosa AK 109; [5]): 0.78 µg/mL | MIC (E. coli NIHJ JC2): 0.39 µg/mL | concentration at 0.125 h ([1]; 7.5 min): 33800 ng/mL | concentration at 0.25 h ([1]; 15 min): 45000 ng/mL | concentration at 0.5 h ([1]; 30 min): 44300 ng/mL | concentration at 1 h ([1]; 60 min): 21900 ng/mL | concentration at 2 h ([1]; 120 min): 7100 ng/mL | concentration at 4 h ([1]; 240 min): 7200 ng/mL

C=C(O/N=C(\C(=O)N[C@@H]1C(=O)N2C(C(=O)O)=C(CSc3nnnn3C)CS[C@H]12)c1csc(N)n1)C(=O)O [Example 19, disodium 7β-[2-(2-aminothiazol-4-yl)-2-(1-carboxylato-1-vinyloxyimino)acetamido]-3-(1-methyl-1H-tetrazol-5-yl)thiomethyl-3-cephem-4-carboxylate (syn-isomer)]
MIC (K. oxytoca GN10650*): 0.05 µg/mL | MIC (Ps. aeruginosa AKR17; [6]): > 100 µg/mL | MIC (K. pneumoniae PC1-602; [2]): 0.0125 µg/mL | MIC (S. marcescens IAM 1184; IAM1184, 10^6 CFU/ml, Mueller Hinton agar, 37° C., 16 hours, read-out: MIC): < 0.006 µg/mL | MIC (S. marcescens No. 16-2*; 16 h): 1.56 µg/mL | MIC (M. morganii GN5407*): 0.025 µg/mL | MIC (S. aureus 209P NIHJ-JC1; 16 h): 6.25 µg/mL | MIC (E. cloacae 963): 0.1 µg/mL | MIC (E. coli CSH(RE45)*): 0.1 µg/mL | MIC (A. calcoaceticus No. 4; [7]): 100 µg/mL | MIC (E. coli GN5482*): 0.39 µg/mL | MIC (E. cloacae Nek 39*; 16 h): 0.78 µg/mL | MIC (P. vulgaris No. 33*): < 0.006 µg/mL | MIC (E. coli CSH2(RK1)*): 0.025 µg/mL | MIC (Ps. aeruginosa IFO3445): 6.25 µg/mL | MIC (Ps. cepacia 23): 3.12 µg/mL | MIC (K. pneumoniae No. 42*): 0.2 µg/mL | MIC (P. vulgaris HX-19; [8]): < 0.006 µg/mL | MIC (Ps. aeruginosa AK 109; AK109, 16 h): 6.25 µg/mL | MIC (E. coli NIHJ JC2): 0.05 µg/mL

C=C(O/N=C(\C(=O)N[C@@H]1C(=O)N2C(C(=O)O)=C(CSc3nnnn3CC(=O)O)CS[C@H]12)c1csc(N)n1)C(=O)O [Example 20, trisodium 7β-[2-(2-aminothiazol-4-yl)-2-(1-carboxylato-1-vinyloxyimino)acetamido]-3-(1-carboxylatomethyl-1H-tetrazol-5-yl)thiomethyl-3-cephem-4-carboxylate (syn-isomer)]
MIC (K. oxytoca GN10650*): 0.39 µg/mL | MIC (Ps. aeruginosa AKR17; [6]): > 100 µg/mL | MIC (K. pneumoniae PC1-602; PC1602, 16 h): 0.1 µg/mL | MIC (S. marcescens IAM 1184; IAM1184, 16 h): 0.05 µg/mL | MIC (S. marcescens No. 16-2*; [3]): 3.12 µg/mL | MIC (M. morganii GN5407*): 0.05 µg/mL | MIC (S. aureus 209P NIHJ-JC1; [4]): 25 µg/mL | MIC (E. cloacae 963): 0.39 µg/mL | MIC (E. coli CSH(RE45)*): 0.78 µg/mL | MIC (A. calcoaceticus No. 4; [7]): 100 µg/mL | MIC (E. coli GN5482*): 1.56 µg/mL | MIC (E. cloacae Nek 39*; [3]): 3.12 µg/mL | MIC (P. vulgaris No. 33*): < 0.006 µg/mL | MIC (E. coli CSH2(RK1)*): 0.2 µg/mL | MIC (Ps. aeruginosa IFO3445): 6.25 µg/mL | MIC (Ps. cepacia 23): 3.12 µg/mL | MIC (K. pneumoniae No. 42*): 0.78 µg/mL | MIC (P. vulgaris HX-19; [8]): < 0.006 µg/mL | MIC (Ps. aeruginosa AK 109; [5]): 12.5 µg/mL | MIC (E. coli NIHJ JC2): 0.39 µg/mL
